Converted amounts (≈) assume the structure as drawn.
Assays:
[1] = system: Mycobacterium tuberculosis; test: Antibacterial activity against Mycobacterium tuberculosis H37Rv infected in Swiss albino mouse assessed as log reduction in bacterial burden in lungs at 26 mg/kg, po administered via gavage starting from 6 weeks post infection measured after 3 to 4 weeks co-treated with isoniazid; format: functional
[2] = system: Mycobacterium tuberculosis; test: Antibacterial activity against Mycobacterium tuberculosis H37Rv infected in Swiss albino mouse assessed as log reduction in bacterial burden in spleen at 26 mg/kg, po administered via gavage starting from 6 weeks post infection measured after 3 to 4 weeks co-treated with isoniazid; format: functional
[3] = system: Mycobacterium tuberculosis; test: Antibacterial activity against Mycobacterium tuberculosis H37Rv infected in Swiss albino mouse assessed as log reduction in bacterial burden in spleen at 26 mg/kg, po administered via gavage starting from 6 weeks post infection measured after 3 to 4 weeks co-treated with rifampicin; format: functional
[4] = system: Mycobacterium tuberculosis; test: Antibacterial activity against Mycobacterium tuberculosis H37Rv infected in Swiss albino mouse assessed as log reduction in bacterial burden in lungs at 26 mg/kg, po administered via gavage starting from 6 weeks post infection measured after 3 to 4 weeks co-treated with rifampicin; format: functional
[5] = system: Mycobacterium tuberculosis; test: Antibacterial activity against Mycobacterium tuberculosis H37Rv ATCC 27294 assessed as reduction in mycobacterial growth incubated for 5 days by MABA method; format: functional; conditions: H37Rv ATCC 27294, 120 h
[6] = system: Mycobacterium tuberculosis; test: Potency index, ratio of pyrazinamide MIC to test compound MIC against Mycobacterium tuberculosis H37Rv ATCC 27294; format: functional
[7] = system: Mycobacterium tuberculosis; test: Potency index, ratio of ciprofloxacin MIC to test compound MIC against Mycobacterium tuberculosis H37Rv ATCC 27294; format: functional
Escherichia coli = test: Antibacterial activity against Escherichia coli incubated for 24 hrs by agar dilution method; format: functional
Staphylococcus aureus = test: Antibacterial activity against Staphylococcus aureus incubated for 24 hrs by agar dilution method; format: functional
Pseudomonas aeruginosa = test: Antibacterial activity against Pseudomonas aeruginosa incubated for 24 hrs by agar dilution method; format: functional
[8] = system: Mycobacterium tuberculosis; test: Potency index, ratio of streptomycin MIC to test compound MIC against Mycobacterium tuberculosis H37Rv ATCC 27294; format: functional
Vero = test: Cytotoxicity against African green monkey Vero cells assessed as reduction in cell viability incubated for 72 hrs by MTT assay; format: cell-based; conditions: Chlorocebus sabaeus
[9] = Cytotoxicity against African green monkey Vero cells assessed as cell growth inhibition at 6.25 ug/ml incubated for 72 hrs by MTT assay relative to control; format: cell-based; conditions: chlorocebus sabaeus, read-out: GI
[10] = Selectivity index, ratio of IC50 for African green monkey Vero cells to MIC for Mycobacterium tuberculosis H37Rv ATCC 27294; format: toxicity; conditions: read-out: Selectivity Index

Structure (SMILES) | Activity [1] [log10CFU] | Activity [2] [log10CFU] | Activity [3] [log10CFU] | Activity [4] [log10CFU] | MIC [5] | Ratio [6] | Ratio [7] | MIC (Escherichia coli) [µg/mL] | MIC (Staphylococcus aureus) [µg/mL] | MIC (Pseudomonas aeruginosa) [µg/mL] | Ratio [8] | IC50 (Vero) [µg/mL] | inhibition at 72 h, 6.25 ug/ml [9] [%] | selectivity ratio [10]
CSc1ccc2c(c1)N(CCC1CCCCN1C)c1ccccc1S2 (centres undefined) [THIORIDAZINE] | >1 | >1 | >1 | >1 |  |  |  |  |  |  |  |  |  | 
N#Cc1ccc(Cn2cc(CN3c4ccc(/C=N/NC(=O)c5cccnc5)cc4Sc4ccc(C(F)(F)F)cc43)nn2)cc1 |  |  |  |  | 2.62 µM | 2 | 4 | 100 (≈ 164 µM) | 50 (≈ 81.9 µM) | 100 (≈ 164 µM) | 4 | 845 (≈ 1380 µM) | 7.32 | 115
N#Cc1ccc(Cn2cc(CN3c4ccccc4Sc4cc(/C=N/NC(=O)c5ccc([N+](=O)[O-])cc5)ccc43)nn2)cc1 |  |  |  |  | 2.72 µM | 2 | 4 | 50 (≈ 85.2 µM) | 25 (≈ 42.6 µM) | 50 (≈ 85.2 µM) | 4 | 693 (≈ 1180 µM) | 7.57 | 91.5
N#Cc1ccc(Cn2cc(CN3c4ccccc4Sc4ccccc43)nn2)cc1 |  |  |  |  | 1.6 µg/mL | 2 | 4 | 12.5 (≈ 31.6 µM) | 6.25 (≈ 15.8 µM) | 12.5 (≈ 31.6 µM) | 4 | 1320 (≈ 3340 µM) | 11.1 | 119
